Test results: patent publication US20010049368A1, “Method for treating or preventing depression” (priority 2000, published 2001)

What was measured:
human NK-1 receptor = biological target: T1, human NK-1 receptor (Homo sapiens, UniProt P25103); test: NK-1 receptor binding assay in intact CHO cells (125I-Tyr8-substance P); conditions: CHO cells expressing the human NK-1 receptor
T1 construct: expressed in transfected cells; host or cells: intact CHO (Chinese hamster ovary) cells
Experimental: NK-1 receptor binding assays are performed in intact Chinese hamster ovary (CHO) cells expressing the human NK-1 receptor using a modification of the assay conditions described by Cascieri et al, J. Pharmacol. Exp. Ther., 1992, 42, 458. Typically, the receptor is expressed at a level of 3×10^5 receptors per cell. Cells are grown in monolayer culture, detached from the plate with enzyme-free dissociation solution (Speciality Media Inc.), and washed prior to use in the assay. ^125I-Tyr^8-substance P (0.1 nM, 2000 Ci/mmol; New England Nuclear) is incubated in the presence or absence of test compounds (dissolved in 5 μl dimethylsulphoxide, DMSO) with 5×10^4 CHO cells. Ligand binding is performed in 0.25 ml of 50 mM Tris-HCl, pH7.5, containing 5 mM MnCl2, 150 mM NaCl, 0.02% bovine serum albumin (Sigma), 50 μg/ml chymostatin (Peninsula), 0.1 nM phenylmethylsulphonyl fluoride, 2 μg/ml pepstatin, 2 μg/ml leupeptin and 2.8 μg/ml furoyl saccharine. The incubation proceeds at room temperature until equilibrium is achieved (>40 minutes) and the receptor-ligand complex is harvested by filtration over GF/C filters pre-soaked in 0.1% polyethylenimine using a Tomtek 96-well harvester. Non-specific binding is determined using excess substance P (1 μM) and represents <10% of total binding.

[1] = system: emesis in ferrets (retches and vomits); test: Ferret emesis: PDE4 inhibitors and alpha-2 adrenoreceptor agonists/antagonists; conditions: for emesis (retching and vomiting) induced by the drug itself: yohimbine by intraperitoneal injection, clonidine 62.5-250 μg kg-1
Experimental: Experiments were conducted using male, adult, fitch or albino ferrets. They were housed in a humidity and temperature controlled environment and fed on carnivore diet (standard cat food) once a day with water ad libitum. On the day of the experiment, the animals were put in individual observation cages and left to habituate for at least 30 minutes.
Drugs were dissolved immediately before use in 100% PEG 300 or sterile water). Oral administration (p.o.) was performed using a 10 cm feeding tube and drugs were administered in a dosing volume of 1 ml kg^−1. Subcutaneous (s.c.) injections were performed at the base of the neck, using sterile water or PEG 300 as the vehicle. The injection volume used was 0.5-1.0 ml kg^−1. For intravenous (i.v.) injections, the left jugular vein was catheterized with a polyethene cannula under halothane anaesthesia. Drugs were dissolved in PEG 300 50% in sterile water and injected in a volume of 1 ml-kg^−1. The vein was then ligated, the incision closed and the animals observed continuously thereafter.
Ferrets were pre-treated with the alpha2-adrenoceptor antagonist, yohimbine.

[2] = system: PDE IV inhibitor-induced emesis in the ferret; test: Ferret emesis: PDE4 inhibitors and neurokinin-1 receptor antagonists; assay type: in vivo; conditions: NK-1 antagonist 3 mg kg-1 i.p. or s.c. 30 minutes prior to oral emetic dose of PDE IV inhibitor
Experimental: Intracerebroventricular (i.c.v.) administration was performed following a surgical implantation of an i.c.v. guide cannula. Under isoflurane anaesthesia, a 22 gauge stainless steel guide cannula (total length=20 mm) was lowered 9 mm below the surface of the skull, at the midline, 2 mm anterior to the cross-suture of the posterior edge of the skull. The tip of the guide cannula is then positioned 3-5 mm directly above the area postrema. The guide cannula was fixed to the skull using 2 screws and dental acrylic cement. The animals received antibiotic (Clamoxyl LA, SmithKline Beecham, Surrey, U.K.; 15 mg kg^−1 s.c.) and analgesic injections (Zenecarp, C-Vet Limited, Edmounds, U.K.; 5 mg kg^−1 s.c.) and were housed in individual cages. They were allowed at least 1 week to recover. Intracerebroventricular administration of drugs was performed by inserting an injection unit of 24-25 mm (level of the area postrema) or 27 mm (for brain tissue injection) length into the guide cannula and infusing 2 μl of the drug solution (or vehicle) over 1 minute. The drugs were dissolved in DMSO or sterile water. […]
Anti-emetic agents ondansetron (3 mg kg^−1 i.p.), and neurokinin-1 receptor antagonists (3 mg kg^−1 i.p. or s.c.) were administered 30 minutes prior to an oral challenge with an emetic dose of selected PDE IV inhibitors. […] The emetic response was monitored as described earlier. […]

T1 sequence (P25103 whole entry): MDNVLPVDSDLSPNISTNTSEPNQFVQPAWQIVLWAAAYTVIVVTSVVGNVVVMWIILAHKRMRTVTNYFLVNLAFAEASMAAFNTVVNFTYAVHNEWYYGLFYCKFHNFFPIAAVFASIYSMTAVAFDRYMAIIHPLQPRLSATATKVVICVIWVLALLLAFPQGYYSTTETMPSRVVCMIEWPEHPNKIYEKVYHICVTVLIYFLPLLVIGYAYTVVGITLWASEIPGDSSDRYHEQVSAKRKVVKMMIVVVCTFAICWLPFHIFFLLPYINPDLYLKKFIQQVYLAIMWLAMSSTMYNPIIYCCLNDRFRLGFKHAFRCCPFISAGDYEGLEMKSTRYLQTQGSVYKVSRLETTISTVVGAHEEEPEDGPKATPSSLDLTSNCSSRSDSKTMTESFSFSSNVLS

**Q.** Which IC50 (human NK-1 receptor) does the source give for `C[C@@H](O[C@H]1OCCN(Cc2nn[nH]c2CN(C)C)[C@H]1c1ccccc1)c1cc(C(F)(F)F)cc(C(F)(F)F)c1` [2-(R)-(1-(R)-(3,5-bis(trifluoromethyl)phenyl)ethoxy)-4-(5-(N,N-dimethylamino)methyl-1,2,3-triazol-4-yl)methyl-3-(S)-phenylmorpholine] here?
**A.** 0.25 nM

**Q.** Which results are given for `Clc1cccc(Cl)c1N=C1NCCN1` [clonidine]?
**A.** number of retches and vomits induced by RS 14203 ([1]; RS 14203 1 mg kg-1 p.o., clonidine 62.5-250 μg kg-1 pre-treatment): dose-dependently decreased; latency of onset of RS 14203-induced emesis ([1]; RS 14203 1 mg kg-1 p.o., clonidine pre-treatment): increased; emesis induced by CT-2450 ([1]; clonidine 250 μg kg-1, CT-2450 30 mg kg-1 p.o., all animals treated): abolished; animals with complete protection against R-rolipram-induced emesis ([1]; clonidine 250 μg kg-1, R-rolipram 3 mg kg-1 p.o.): two out of three; animals with complete protection against RS 14203-induced emesis ([1]; clonidine 250 μg kg-1, RS 14203 1 mg kg-1 p.o.): five out of six

**Q.** With `CN1CC[C@]2(CCN3CCc4c(oc5ccccc45)[C@@H]3C2)N(C)C1=O` [MK-912] as the molecule, how does the “emesis (retching and vomiting) induced by the drug itself” value (“emesis (retching and vomiting) induced” below) [1] read?
**A.** Emesis was also recorded

**Q.** How did the “effect on PDE IV inhibitor-induced emesis” value [2] turn out when `COc1ccccc1CN[C@H]1CCCN[C@H]1c1ccccc1` [CP-99,994] was run?
**A.** abolished

**Q.** Which “emesis (retching and vomiting) induced” value [1] does the source give for `CS(=O)(=O)NCCN1C(=O)NC[C@]12CCN1CCc3c(oc4ccccc34)[C@@H]1C2` [MK-467] here?
**A.** Emesis was also recorded

**Q.** `COC(=O)[C@@H]1[C@H]2C[C@H]3c4[nH]c5ccccc5c4CCN3C[C@@H]2CC[C@@H]1O` [yohimbine] was tested. Which “emesis (retching and vomiting) induced” value [1] did it give?
**A.** induced retching and vomiting in all ferrets treated
